# Columns and labels:
# Type in all cases: functional
# ACHN = assay: Cytotoxicity against human ACHN cells after 48 hrs by SRB assay; conditions: for CC50: read-out: pLC50 (the source's name) (converted)
# NCI/ADR-RES = assay: Growth inhibition of human NCI/ADR-RES cells assessed as cell growth at 10^-7 M incubated for 48 hrs by sulforhodamine B assay relative to control; conditions: read-out: Activity
# BT-549 = assay: Cytotoxicity against human BT549 cells after 48 hrs by SRB assay; conditions: BT-549, 48 h; for GI50: read-out: GI50; for TGI: read-out: TGI
# HOP-92 = assay: Cytotoxicity against human HOP92 cells after 48 hrs by SRB assay; conditions: HOP-92, 48 h; for GI50: read-out: GI50; for CC50: read-out: LC50 (the source's name); for TGI: read-out: TGI
# SK-MEL-2 = assay: Growth inhibition of human SK-MEL-2 cells assessed as cell growth at 10^-7 M incubated for 48 hrs by sulforhodamine B assay relative to control; conditions: SK-MEL-2, 48 h, read-out: Activity
# M14 = assay: Growth inhibition of human M14 cells assessed as cell growth at 10^-8 M incubated for 48 hrs by sulforhodamine B assay relative to control; conditions: M14, 48 h, read-out: Activity
# 786-0 = assay: Growth inhibition of human 786-0 cells assessed as cell growth at 10^-7 M incubated for 48 hrs by sulforhodamine B assay relative to control; conditions: 786-0, 48 h, read-out: Activity
# HCC 2998 [1] = assay: Growth inhibition of human HCC2998 cells assessed as cell growth at 10^-7 M incubated for 48 hrs by sulforhodamine B assay relative to control; conditions: HCC 2998, 48 h, read-out: Activity
# Malme-3M [2] = assay: Growth inhibition of human MALME-3M cells assessed as cell growth at 10^-8 M incubated for 48 hrs by sulforhodamine B assay relative to control; conditions: read-out: Activity
# KM12 = assay: Cytotoxicity against human KM12 cells after 48 hrs by SRB assay; conditions: KM12, 48 h; for GI50: read-out: GI50
# EKVX = assay: Growth inhibition of human EKVX cells assessed as cell growth at 10^-6 M incubated for 48 hrs by sulforhodamine B assay relative to control; conditions: read-out: Activity
# HT-29 = assay: Growth inhibition of human HT-29 cells assessed as cell growth at 10^-8 M incubated for 48 hrs by sulforhodamine B assay relative to control; conditions: HT-29, 48 h, read-out: Activity
# SK-MEL-5 = assay: Growth inhibition of human SK-MEL-5 cells assessed as cell growth at 10^-8 M incubated for 48 hrs by sulforhodamine B assay relative to control; conditions: SK-MEL-5, 48 h, read-out: Activity
# OVCAR-5 = assay: Growth inhibition of human OVCAR5 cells assessed as cell growth at 10^-8 M incubated for 48 hrs by sulforhodamine B assay relative to control; conditions: OVCAR-5, 48 h, read-out: Activity
# UACC-62 [3] = assay: Growth inhibition of human UACC62 cells assessed as cell growth at 10^-8 M incubated for 48 hrs by sulforhodamine B assay relative to control; conditions: UACC-62, 48 h, read-out: Activity
# Malme-3M [4] = assay: Growth inhibition of human MALME-3M cells assessed as cell growth at 10^-7 M incubated for 48 hrs by sulforhodamine B assay relative to control; conditions: read-out: Activity
# K562 = assay: Growth inhibition of human K562 cells assessed as cell growth at 10^-8 M incubated for 48 hrs by sulforhodamine B assay relative to control; conditions: K562, 48 h, read-out: Activity
# OVCAR-3 = assay: Cytotoxicity against human OVCAR3 cells after 48 hrs by SRB assay; conditions: OVCAR-3, 48 h; for GI50: read-out: GI50; for TGI: read-out: TGI
# UO-31 = assay: Growth inhibition of human UO31 cells assessed as cell growth at 10^-7 M incubated for 48 hrs by sulforhodamine B assay relative to control; conditions: UO-31, 48 h, read-out: Activity
# HCC 2998 [5] = assay: Growth inhibition of human HCC2998 cells assessed as cell growth at 10^-8 M incubated for 48 hrs by sulforhodamine B assay relative to control; conditions: HCC 2998, 48 h, read-out: Activity
# SK-OV-3 = assay: Cytotoxicity against human SKOV3 cells after 48 hrs by SRB assay; conditions: SK-OV-3, 48 h; for GI50: read-out: GI50; for CC50: read-out: LC50 (the source's name)
# SNB-75 = assay: Cytotoxicity against human SNB75 cells after 48 hrs by SRB assay; conditions: SNB-75, 48 h; for GI50: read-out: GI50; for CC50: read-out: LC50 (the source's name); for TGI: read-out: TGI
# MDA-MB-435 = assay: Growth inhibition of human MDA-MB-435 cells assessed as cell growth at 10^-5 M incubated for 48 hrs by sulforhodamine B assay relative to control; conditions: MDA-MB-435, 48 h, read-out: Activity
# MDA-MB-231 = assay: Growth inhibition of human MDA-MB-231 cells assessed as cell growth at 10^-6 M incubated for 48 hrs by sulforhodamine B assay relative to control; conditions: MDA-MB-231, 48 h, read-out: Activity
# OVCAR-4 [6] = assay: Growth inhibition of human OVCAR4 cells assessed as cell growth at 10^-5 M incubated for 48 hrs by sulforhodamine B assay relative to control; conditions: OVCAR-4, 48 h, read-out: Activity
# SW-620 [7] = assay: Growth inhibition of human SW620 cells assessed as cell growth at 10^-5 M incubated for 48 hrs by sulforhodamine B assay relative to control; conditions: SW-620, 48 h, read-out: Activity
# UACC-62 [8] = assay: Growth inhibition of human UACC62 cells assessed as cell growth at 10^-5 M incubated for 48 hrs by sulforhodamine B assay relative to control; conditions: UACC-62, 48 h, read-out: Activity
# OVCAR-4 [9] = assay: Growth inhibition of human OVCAR4 cells assessed as cell growth at 10^-4 M incubated for 48 hrs by sulforhodamine B assay relative to control; conditions: OVCAR-4, 48 h, read-out: Activity
# TK-10 [10] = assay: Growth inhibition of human TK10 cells assessed as cell growth at 10^-6 M incubated for 48 hrs by sulforhodamine B assay relative to control; conditions: TK-10, 48 h, read-out: Activity
# SW-620 [11] = assay: Growth inhibition of human SW620 cells assessed as cell growth at 10^-4 M incubated for 48 hrs by sulforhodamine B assay relative to control; conditions: SW-620, 48 h, read-out: Activity
# NCI-H322M = assay: Growth inhibition of human NCI-H322M cells assessed as cell growth at 10^-5 M incubated for 48 hrs by sulforhodamine B assay relative to control; conditions: read-out: Activity
# TK-10 [12] = assay: Growth inhibition of human TK10 cells assessed as cell growth at 10^-4 M incubated for 48 hrs by sulforhodamine B assay relative to control; conditions: TK-10, 48 h, read-out: Activity
# [13] = read-out: LC50 (the source's name)
# [14] = read-out: pLC50 (the source's name) (converted)
structure (smiles),measurement,setting,value
C#C[C@@]1(O)[C@@H](CO)O[C@@H](n2cc(Cl)c3c(N)ncnc32)[C@@H]1O,GI50,ACHN,219 nM
same,CC50,ACHN,> 100000 nM
same,growth at 0.1 µM,NCI/ADR-RES,37 to 40%
same,GI50,BT-549,223 to 228 nM
same,TGI,BT-549,640 to 685 nM
same,GI50,HOP-92,433 to 476 nM
same,CC50,HOP-92,> 100000 nM
same,TGI,HOP-92,3330 to 3740 nM
same,growth at 0.1 µM,SK-MEL-2,47 to 66%
same,growth at 0.01 µM,M14,93 to 94%
same,growth at 0.1 µM,786-0,89 to 94%
same,growth at 0.1 µM,HCC 2998 [1],79 to 80%
same,growth at 0.01 µM,Malme-3M [2],93 to 100%
same,GI50,KM12,126 to 161 nM
same,CC50,KM12; [13],> 100000 nM
same,TGI,KM12; read-out: TGI,> 100000 nM
same,TGI,KM12; read-out: pTGI (converted),> 100000 nM
same,growth at 1 µM,EKVX,10%
same,growth at 0.01 µM,HT-29,83 to 92%
same,growth at 0.01 µM,SK-MEL-5,90 to 97%
same,growth at 0.01 µM,OVCAR-5,95 to 97%
same,growth at 0.01 µM,UACC-62 [3],94 to 97%
same,growth at 0.1 µM,Malme-3M [4],79 to 80%
same,growth at 0.01 µM,K562,93 to 97%
same,GI50,OVCAR-3,228 to 237 nM
same,TGI,OVCAR-3,1600 to 2010 nM
same,CC50,OVCAR-3; [14],> 100000 nM
same,growth at 0.1 µM,UO-31,61 to 69%
same,growth at 0.01 µM,HCC 2998 [5],92 to 99%
same,GI50,SK-OV-3,119 to 171 nM
same,CC50,SK-OV-3,> 100000 nM
same,TGI,SK-OV-3; read-out: TGI,467 to 573 nM
same,GI50,SNB-75,258 to 310 nM
same,CC50,SNB-75,1800 to 3210 nM
same,TGI,SNB-75,574 to 888 nM
same,growth at 10 µM,MDA-MB-435,-65%
same,growth at 1 µM,MDA-MB-231,-4%
C#C[C@@]1(O)[C@@H](CO)O[C@@H](n2cc(Br)c3c(N)ncnc32)[C@@H]1O,GI50,ACHN,234 nM
same,CC50,ACHN,> 100000 nM
same,growth at 0.1 µM,NCI/ADR-RES,34 to 41%
same,GI50,BT-549,147 to 234 nM
same,CC50,BT-549; [13],> 100000 nM
same,TGI,BT-549,536 to 819 nM
same,GI50,HOP-92,149 to 318 nM
same,CC50,HOP-92,> 100000 nM
same,TGI,HOP-92,686 to 3130 nM
same,growth at 0.1 µM,SK-MEL-2,48 to 75%
same,growth at 10 µM,OVCAR-4 [6],7%
same,growth at 10 µM,SW-620 [7],4 to 5%
same,growth at 10 µM,UACC-62 [8],4 to 8%
same,growth at 0.01 µM,M14,92 to 94%
same,growth at 0.1 µM,786-0,69 to 88%
same,growth at 0.1 µM,HCC 2998 [1],73 to 80%
same,growth at 0.01 µM,Malme-3M [2],100 to 102%
same,GI50,KM12,94.6 to 121 nM
same,TGI,KM12; read-out: TGI,> 100000 nM
same,CC50,KM12; [14],> 100000 nM
same,TGI,KM12; read-out: pTGI (converted),> 100000 nM
same,growth at 1 µM,EKVX,4 to 17%
same,growth at 0.01 µM,HT-29,78 to 94%
same,growth at 0.01 µM,SK-MEL-5,93 to 96%
same,growth at 100 µM,OVCAR-4 [9],3 to 15%
same,growth at 0.01 µM,OVCAR-5,98 to 99%
same,growth at 1 µM,TK-10 [10],17 to 27%
same,growth at 0.01 µM,UACC-62 [3],93 to 101%
same,growth at 100 µM,SW-620 [11],4 to 6%
same,growth at 0.1 µM,Malme-3M [4],77 to 79%
same,growth at 10 µM,NCI-H322M,-12%
same,growth at 0.01 µM,K562,87 to 99%
same,GI50,OVCAR-3,184 to 252 nM
same,CC50,OVCAR-3; [13],> 100000 nM
same,TGI,OVCAR-3,3010 to 4710 nM
same,growth at 0.1 µM,UO-31,55 to 57%
same,growth at 0.01 µM,HCC 2998 [5],86 to 99%
same,GI50,SK-OV-3,44.1 to 153 nM
same,CC50,SK-OV-3,> 100000 nM
same,TGI,SK-OV-3; read-out: TGI,439 nM
same,TGI,SK-OV-3; read-out: pTGI (converted),437 nM
same,GI50,SNB-75,221 to 249 nM
same,CC50,SNB-75,1640 to 3670 nM
same,TGI,SNB-75,519 to 1070 nM
same,growth at 100 µM,TK-10 [12],7%
same,growth at 1 µM,MDA-MB-231,2 to 8%

# From ChEMBL document CHEMBL4270599, “Synthesis of a 3'-C-ethynyl-β-d-ribofuranose purine nucleoside library: Discovery of C7-deazapurine analogs as potent antiproliferative nucleosides” (Eur J Med Chem, 2018)
